The record followed here is ChEMBL document CHEMBL4616668, “Discovery of a High Affinity, Orally Bioavailable Macrocyclic FXIa Inhibitor with Antithrombotic Activity in Preclinical Species” (J Med Chem, 2020).

One data set has as its target Coagulation factor XI (Homo sapiens, UniProt P03951). Put plainly: Inhibition of human factor11a using pyro-Glu-Pro-Arg-pNA(para-nitroaniline) substrate by spectrophotometry.
The nature of data set [1]: Half life in cynomolgus monkey liver microsomes. It is filed as ADME, Macaca fascicularis, Microsome.
Data set [2] relates to Plasma. As to the kind of experiment: Anticoagulant activity in human plasma assessed as activated partial thromboplastin time. It is filed as functional.
A short description of data set [3]: Half life in rat liver microsomes. It is filed as ADME, Microsome.
A short description of data set [4]: Half life in human liver microsomes. The format is ADME, Microsome.
Data set [5] can be described thus: Half life in dog liver microsomes. The format is ADME, Canis lupus familiaris, Microsome.
Data set [6] is described as follows: Clearance in Sprague-Dawley rat at 0.6 mg/kg, iv. It is filed as ADME, organism-based. The conditions noted are these: in vivo.
A short description of data set [7]: Oral bioavailability in Sprague-Dawley rat at […]. The format is ADME, organism-based. The conditions noted are these: in vivo.
The nature of data set [8]: AUC in cynomolgus monkey at 0.5 mg/kg, iv. The format is ADME, organism-based, Macaca fascicularis. The note with it: in vivo.
A short description of data set [9]: Clearance in Beagle dog at 0.4 mg/kg, iv. The note with it: in vivo. The format is ADME, organism-based, Canis lupus familiaris.
Data set [10] in a line: Clearance in cynomolgus monkey at 0.5 mg/kg, iv. The conditions noted are these: in vivo. It is filed as ADME, organism-based, Macaca fascicularis.
Data set [11] is described as follows: Oral bioavailability in cynomolgus monkey at 1.5 mg/kg. The format is ADME, organism-based, Macaca fascicularis. The note with it: in vivo.
Data set [12] can be described thus: AUC in Beagle dog at 0.4 mg/kg, iv. The format is ADME, organism-based, Canis lupus familiaris. The conditions noted are these: in vivo.
The nature of data set [13]: Terminal half life in Beagle dog at 0.4 mg/kg, iv. It is filed as ADME, organism-based, Canis lupus familiaris. The note with it: in vivo, read-out: beta t1/2 (converted).
Data set [14] is described as follows: Oral bioavailability in Beagle dog at 1.1 mg/kg. The conditions noted are these: in vivo. The format is ADME, organism-based, Canis lupus familiaris.
Data set [15] in a line: Permeability form basolateral to apical side in human Caco2 cells. The format is ADME, cell-based. The conditions noted are these: Caco-2, read-out: permeability.
Data set [16] is described as follows: Apparent volume of distribution at steady-state in Sprague-Dawley rat at 0.6 mg/kg, iv. The format is ADME, organism-based. The conditions noted are these: in vivo, read-out: Vdss(app).
Data set [17] is described as follows: Terminal half life in cynomolgus monkey at 0.5 mg/kg, iv. It is filed as ADME, organism-based, Macaca fascicularis. The note with it: in vivo, read-out: beta t1/2 (converted).
Data set [18] is described as follows: Terminal half life in Sprague-Dawley rat at 0.6 mg/kg, iv. It is filed as ADME, organism-based. The conditions noted are these: in vivo, read-out: beta t1/2 (converted).
The nature of data set [19]: AUC in Sprague-Dawley rat at 0.6 mg/kg, iv. The conditions noted are these: in vivo. It is filed as ADME, organism-based.
Data set [20] can be described thus: AUC in cynomolgus monkey at 1.5 mg/kg, po. The format is ADME, organism-based, Macaca fascicularis. The note with it: in vivo.
A short description of data set [21]: AUC in Sprague-Dawley rat at […], po. The format is ADME, organism-based. The note with it: in vivo.
The nature of data set [22]: Apparent volume of distribution at steady-state in Beagle dog at 0.4 mg/kg, iv. The note with it: in vivo, read-out: Vdss(app). It is filed as ADME, organism-based, Canis lupus familiaris.
Data set [23] in a line: Permeability form apical to basolateral side in human Caco2 cells. It is filed as ADME, cell-based. The note with it: Caco-2, read-out: permeability.
Data set [24] is described as follows: AUC in Beagle dog at 1.1 mg/kg, po. The format is ADME, organism-based, Canis lupus familiaris. The note with it: in vivo.
Data set [25] is described as follows: Apparent volume of distribution at steady-state in cynomolgus monkey at 0.5 mg/kg, iv. The format is ADME, organism-based, Macaca fascicularis. The conditions noted are these: in vivo, read-out: Vdss(app).
Data set [26] relates to Plasma. Put plainly: Anticoagulant activity in rabbit plasma assessed as activated partial thromboplastin time. It is filed as functional, Oryctolagus cuniculus.
The nature of data set [27]: Toxicity in New Zealand White rabbit model of cuticle bleeding time assessed as increase in cuticle bleeding time at 4 mg/kg/hr dosed as continuous intravenous infusion 30 to 60 mins prior to cuticle transection relative to control. The format is organism-based, Oryctolagus cuniculus. The conditions noted are these: in vivo.

Sequence of Coagulation factor XI (P03951 19-387 limits assumed): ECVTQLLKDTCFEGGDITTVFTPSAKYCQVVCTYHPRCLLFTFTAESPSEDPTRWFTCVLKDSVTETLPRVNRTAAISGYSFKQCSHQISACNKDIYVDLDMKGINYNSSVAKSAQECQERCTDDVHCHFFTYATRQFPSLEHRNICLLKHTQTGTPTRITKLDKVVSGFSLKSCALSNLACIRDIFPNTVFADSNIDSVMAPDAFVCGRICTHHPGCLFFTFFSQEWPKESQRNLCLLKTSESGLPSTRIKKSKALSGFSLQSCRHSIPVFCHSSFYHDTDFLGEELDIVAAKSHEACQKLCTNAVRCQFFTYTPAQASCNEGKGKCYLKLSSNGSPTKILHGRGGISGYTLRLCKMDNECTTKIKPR
Sequence of Coagulation factor XI (P03951 388-625 limits assumed): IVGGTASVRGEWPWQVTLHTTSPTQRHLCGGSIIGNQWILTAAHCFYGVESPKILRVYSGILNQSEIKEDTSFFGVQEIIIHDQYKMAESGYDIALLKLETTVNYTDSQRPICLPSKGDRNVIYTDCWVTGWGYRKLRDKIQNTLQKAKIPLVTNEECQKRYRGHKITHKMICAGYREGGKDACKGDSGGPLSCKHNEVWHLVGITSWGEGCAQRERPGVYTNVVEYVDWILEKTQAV

For the compound `COC(=O)Nc1ccc2c(c1)NC(=O)[C@H](C)CCC[C@H](N1CCN(c3c(F)ccc(Cl)c3F)CC1=O)c1cc-2ccn1`, the inhibition constant Ki on Coagulation factor XI is 4.5 nM. Further, the half-life in data set [1] is 1 min; in [3], 9 min; in [4], 4 min; in [5], 6 min. In addition, in the data set on Plasma [2], the EC1.5 worked out at 4.6 µM.

Compound `COC(=O)Nc1ccc2c(c1)NC(=O)[C@H](C)CCC[C@H](N1CC(=O)N(c3c(F)ccc(Cl)c3F)CC1=O)c1cc-2ccn1` yielded a Ki on Coagulation factor XI of 4.9 nM. Moreover, the half-life came to 27 min in data set [1], 55 min in [3], 75 min in data set [4] and 72 min in data set [5]. The EC1.5 with Plasma [2] was found to be 1.4 µM.

Take `COC(=O)Nc1ccc2c(c1)NC(=O)[C@H](C)CCC[C@H](N1CC[C@H](c3c(F)ccc(Cl)c3F)OC1=O)c1ccnc-2c1`: on Coagulation factor XI, the affinity, expressed as Ki, was 1.6 nM. In addition, the half-life in [1] is 9 min; in data set [3], 29 min; in data set [4], 36 min; in data set [5], 44 min. Further, in the data set with Plasma [2], the EC1.5 stood at 0.5 µM. Besides, the clearance in [6] worked out at 33 mL/min/kg. Also, the bioavailability in data set [7] is 48%.

Take `COC(=O)Nc1ccc2c(c1)NC(=O)[C@H](C)CCC[C@H](N1CCC(c3c(F)ccc(Cl)c3F)=CC1=O)c1cc-2ccn1`: the EC1.5 in the data set on Plasma [2] came to 1.8 µM.

Consider `COC(=O)Nc1ccc2c(c1)NC(=O)[C@H](C)CCC[C@H](N1CC[C@H](c3c(F)ccc(Cl)c3F)OC1=O)c1cncc-2c1`, for which the Ki on Coagulation factor XI came to 1.8 nM. The half-life in data set [1] is 2 min; in data set [3] it was 9 min; in data set [4], 17 min; in [5], 21 min. For the same compound, the EC1.5 in the data set on Plasma [2] is 0.6 µM.

In the case of `COC(=O)Nc1ccc2c(c1)NC(=O)[C@H](C)CCC[C@H](N1CC[C@H](c3c(F)ccc(Cl)c3F)OC1=O)c1cc-2cnc1F`, at Coagulation factor XI, the Ki was 2.7 nM. Further, the EC1.5 with Plasma [2] was 1.2 µM. Besides, the figures for the half-life in [3], in [4] and in data set [5] were 6 min, 9 min and 15 min, respectively.

At Coagulation factor XI, `COC(=O)Nc1ccc2c(c1)NC(=O)[C@H](C)CCC[C@H](N1CCN(c3c(F)ccc(Cl)c3F)C(=O)C1=O)c1cc-2ccn1` displayed a Ki of 14 nM. Also, the half-life in data set [1] came to 80 min; in data set [3], 60 min; in [4] it was 76 min; in data set [5] it was 64 min. For the same compound, the EC1.5 in the data set on Plasma [2] worked out at 4.3 µM.

Compound `COC(=O)Nc1ccc2c(c1)NC(=O)[C@H](C)CCC[C@H](N1CC[C@H](c3c(F)ccc(Cl)c3F)OC1=O)c1ncc-2[nH]1` returned a Ki at Coagulation factor XI of 0.7 nM. Further, the AUC amounted to 0.233 µM·h in data set [8]; 0.285 µM·h in [12]; 0.52 µM·h in data set [19]; 0.263 µM·h in [20]; 0.687 µM·h in data set [21]; 0.446 µM·h in data set [24]. For the same compound, the half-life in data set [1] was 17 min; in [13], 114 min; in [17], 84 min; in [3] it was 48 min; in data set [4], 55 min; in [5], 38 min. The half-life in [18] was 84 min. Moreover, the clearance in data set [9] is 38 mL/min/kg; in data set [10] it was 56 mL/min/kg; in data set [6], 33 mL/min/kg. Also, in the data set with Plasma [2], the EC1.5 came to 0.6 µM. For the same compound, the results for the bioavailability in data set [11], in data set [14] and in [7] were 29%, 57% and 54%, respectively. Further, in data set [15], the Papp B→A is 23.8 ×10⁻⁶ cm/s. Moreover, the Vd in [16] was 3.2 L/kg; in data set [22] it was 5.1 L/kg; in data set [25], 9.2 L/kg. Besides, in data set [23], the Papp A→B is 3.8 ×10⁻⁶ cm/s.

Regarding `COC(=O)Nc1ccc2c(c1)NC(=O)[C@H](C)CCC[C@H](N1CCC(c3c(F)ccc(Cl)c3F)NC1=O)c1cc-2ccn1` (stereo partly specified), at Coagulation factor XI, affinity was put at a Ki of 0.5 nM. The half-life came to 2 min in data set [1], 40 min in [3], 17 min in [4] and 27 min in data set [5]. The EC1.5 in the data set on Plasma [2] is 7.5 µM.

Compound `COC(=O)Nc1ccc2c(c1)NC(=O)[C@H](C)CCC[C@H](N1CC[C@H](c3c(F)ccc(Cl)c3F)OC1=O)c1cc-2ccn1` yielded an inhibitory constant (Ki) at Coagulation factor XI of 0.6 nM. For the same compound, the half-life turned out to be 12 min in data set [1], 35 min in data set [3], 56 min in [4] and 27 min in [5]. Besides, the EC1.5 with Plasma [2] was 0.5 µM. The same compound had a clearance in [6] of 23 mL/min/kg. In data set [7], this compound came in with a bioavailability of 37%.

Take `COC(=O)Nc1ccc2c(c1)NC(=O)[C@H](C)CCC[C@H](N1CCC(c3c(F)ccc(Cl)c3F)=CC1=O)c1cc-2ccn1.O=C(O)C(F)(F)F`: the EC1.5 in the data set with Plasma [26] is 26 µM.

For `COC(=O)Nc1ccc2c(c1)NC(=O)[C@H](C)CCC[C@H](N1CCC(c3c(F)ccc(Cl)c3F)CC1=O)c1cc-2ccn1` (mixture of isomers), the inhibitory constant (Ki) at Coagulation factor XI was found to be 0.9 nM. Further, the half-life was determined as 3 min in [1], 15 min in data set [3], 8 min in data set [4] and 13 min in [5]. The EC1.5 with Plasma [2] turned out to be 2.8 µM.

On to `CC(=O)Oc1ccccc1C(=O)O` [ASPIRIN], for which, in data set [27], the “fold change (FC)” value was found to be 2.3.
